Measurements reported in patent US20040157784A1, “Opiod tannate compositions” (Jame Fine Chemicals, Inc., priority 2003, published 2004).

Experiment: Solubility of hydrocodone free base in methylene chloride (solvent of the reaction completion test)

For `COc1ccc2c3c1O[C@H]1C(=O)CC[C@H]4[C@@H](C2)N(C)CC[C@]314` [hydrocodone free base], the “soluble to the extent of (methylene chloride)” value was 99.94%.
